In ChEMBL document CHEMBL1275309, “Exploring new inhibitors of Plasmodium falciparum purine nucleoside phosphorylase” (Eur J Med Chem, 2010):

Legend:
[1] = biological target: T1, Purine nucleoside phosphorylase (Homo sapiens, UniProt P00491); experiment: Inhibition of human PNP
T1 sequence (P00491 whole entry): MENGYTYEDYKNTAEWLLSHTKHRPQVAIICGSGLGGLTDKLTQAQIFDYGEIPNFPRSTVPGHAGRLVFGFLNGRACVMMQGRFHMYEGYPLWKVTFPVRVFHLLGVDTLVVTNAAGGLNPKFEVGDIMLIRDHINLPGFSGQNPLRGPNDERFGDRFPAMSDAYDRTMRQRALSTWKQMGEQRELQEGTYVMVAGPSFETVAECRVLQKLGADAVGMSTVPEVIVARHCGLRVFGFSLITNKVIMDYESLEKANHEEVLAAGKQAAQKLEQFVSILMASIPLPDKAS

[2] = biological target: T2, Purine nucleoside phosphorylase (Plasmodium falciparum, UniProt Q8T9Z7); experiment: Inhibition of Plasmodium falciparum PNP expressed in Escherichia coli BL21(DE3) cells by spectrophotometry
T2 sequence (Q8T9Z7 whole entry): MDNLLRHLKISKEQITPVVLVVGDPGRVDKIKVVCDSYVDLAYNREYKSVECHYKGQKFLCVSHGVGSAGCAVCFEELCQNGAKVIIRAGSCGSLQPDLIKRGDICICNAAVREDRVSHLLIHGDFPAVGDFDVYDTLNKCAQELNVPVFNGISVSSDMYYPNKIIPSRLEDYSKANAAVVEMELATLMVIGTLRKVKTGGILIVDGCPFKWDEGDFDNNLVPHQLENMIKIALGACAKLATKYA

Plasmodium falciparum = experiment: Antiplasmodial activity against erythrocytic stages of Plasmodium falciparum 3D7 after 48 hrs by SYBR green assay; format: functional, organism-based; conditions: 3D7, 48 h
Uridine phosphorylase 1 = Uridine phosphorylase 1 (Homo sapiens, UniProt Q16831); experiment: Inhibition of human uridine phosphorylase
Sequence of Uridine phosphorylase 1 (Q16831 whole entry): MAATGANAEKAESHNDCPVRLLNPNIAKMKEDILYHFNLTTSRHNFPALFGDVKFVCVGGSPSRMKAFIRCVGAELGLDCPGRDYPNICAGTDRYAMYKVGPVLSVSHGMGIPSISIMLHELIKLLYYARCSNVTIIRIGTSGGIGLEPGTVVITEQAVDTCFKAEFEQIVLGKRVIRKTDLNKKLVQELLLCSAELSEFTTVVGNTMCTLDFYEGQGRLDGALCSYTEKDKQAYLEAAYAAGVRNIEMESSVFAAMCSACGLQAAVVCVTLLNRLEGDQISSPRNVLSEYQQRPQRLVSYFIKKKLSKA

SMILES	Kd [1] [µM]	IC50 [2] [µM]	EC50 (Plasmodium falciparum) [µM]	Ki [2] [µM]	Ki (Uridine phosphorylase 1) [µM]
O=c1[nH]cnc2c(CN3CCCC3)c[nH]c12	0.0055				
O=C1NC(=O)C(Cc2ccccc2)C(=O)N1		> 1000			
O=c1ccn(CCN2CCCC2)c(=O)[nH]1		141	> 500	27	
O=c1ccn(CCCN2CCCC2)c(=O)[nH]1		230	> 1000	59	
O=c1ccn(CCCN2CCC[C@H]2CO)c(=O)[nH]1		712	375	136	
O=c1ccn(CCCCN2CCCC2)c(=O)[nH]1		524	> 1000	105	
O=c1ccn(CCCCN2CCC[C@H]2CO)c(=O)[nH]1		592	> 1000	113	
O=c1cc[nH]c(=O)n1CCN1CCCC1		42	> 500	6	
O=c1cc[nH]c(=O)n1CCN1CCC[C@H]1CO		366	> 1000	75	
O=C1NC(=O)N(COCCO)C(=O)C1Cc1cccc(OCc2ccccc2)c1 (stereo not drawn)		> 1000		0.0011	0.0011
O=C1NC(=O)C(Cc2cccc(OCc3ccccc3)c2)C(=O)N1		> 1000			2.3
